Assay results: ChEMBL document CHEMBL1154825, “Schweinfurthins I and J from Macaranga schweinfurthii” (2010)

Experiments:
Format in all cases: functional
TK-10 = test: Growth inhibition of human TK10 cells
OVCAR-5 = test: Growth inhibition of human OVCAR5 cells
MDA-MB-468 = test: Growth inhibition of human MDA-MB-468 cells
CCRF-CEM = test: Growth inhibition of human CCRF-CEM cells
OVCAR-3 = test: Growth inhibition of human OVCAR-3 cells
SW-620 = test: Growth inhibition of human SW620 cells
HCT-116 = test: Growth inhibition of human HCT116 cells
SF-295 = test: Growth inhibition of human SF295 cells
BT-549 = test: Growth inhibition of human BT549 cells
NCI-H522 = test: Growth inhibition of human NCI-H522 cells
HL-60(TB) = test: Growth inhibition of human HL-60(TB) cells
MOLT-4 = test: Growth inhibition of human MOLT4 cells
A498 = test: Growth inhibition of human A498 cells
RXF 393 = test: Growth inhibition of human […] cells
T47D = test: Growth inhibition of human T47D cells
HCT-15 = test: Growth inhibition of human HCT15 cells
IGROV-1 = test: Growth inhibition of human IGROV1 cells
M14 = test: Growth inhibition of human M14 cells
NCI-H322M = test: Growth inhibition of human NCI-H322M cells
SK-OV-3 = test: Growth inhibition of human SKOV3 cells
SNB-19 = test: Growth inhibition of human SNB19 cells
ACHN = test: Growth inhibition of human ACHN cells
NCI-H226 = test: Growth inhibition of human NCI-H226 cells
A549 = test: Growth inhibition of human A549 cells
MDA-MB-231 = test: Growth inhibition of human MDA-MB-231 cells
CAKI-1 = test: Growth inhibition of human Caki1 cells
LOX IMVI = test: Growth inhibition of human LOXIMVI cells
UACC-257 = test: Growth inhibition of human UACC257 cells
HCC 2998 = test: Growth inhibition of human HCC2998 cells
MCF7 = test: Growth inhibition of human MCF7 cells
SNB-75 = test: Growth inhibition of human SNB75 cells
NCI-H23 = test: Growth inhibition of human NCI-H23 cells
NCI/ADR-RES = test: Growth inhibition of human NCI/ADR-RES cells
NCI-H460 = test: Growth inhibition of human NCI-H460 cells
[1] = Growth inhibition of human Hs 578T cells
U-251 = test: Growth inhibition of human U251 cells
K562 = test: Growth inhibition of human K562 cells
KM12 = test: Growth inhibition of human KM12 cells
SN12C = test: Growth inhibition of human SN12C cells
SK-MEL-28 = test: Growth inhibition of human SK-MEL-28 cells
HOP-92 = test: Growth inhibition of human HOP92 cells
SR = test: Growth inhibition of human SR cells
786-0 = test: Growth inhibition of human 786-0 cells
SF-539 = test: Growth inhibition of human SF539 cells
[2] = read-out: pLC50 (the source's name) (converted)

## CC(C)=CCC/C(C)=C/CC/C(C)=C/Cc1c(O)cc(/C=C/c2ccc(O)cc2)cc1O [SCHWEINFURTHIN J]
TK-10
  GI50: 2630 nM
  LC50: 31.6 µM
TK-10; read-out: pTGI (converted)
  TGI: 9.33 µM
OVCAR-5
  GI50: 4.47 µM
  LC50: 44.7 µM
OVCAR-5; read-out: pTGI (converted)
  TGI: 15.8 µM
MDA-MB-468
  GI50: 2690 nM
MDA-MB-468; [2]
  CC50: 36.3 µM
MDA-MB-468; read-out: pTGI (converted)
  TGI: 8.91 µM
CCRF-CEM
  GI50: 537 nM
  LC50: > 100 µM
CCRF-CEM; read-out: pTGI (converted)
  TGI: 17 µM
OVCAR-3
  GI50: 2000 nM
  LC50 (concentration killing 50% of cells): 14.1 µM
OVCAR-3; read-out: pTGI (converted)
  TGI: 4.79 µM
SW-620
  GI50: 3.16 µM
  LC50: 66.1 µM
SW-620; read-out: pTGI (converted)
  TGI: 12 µM
HCT-116
  GI50: 1860 nM
HCT-116; [2]
  CC50: 7.94 µM
HCT-116; read-out: pTGI (converted)
  TGI: 3.89 µM
SF-295
  GI50: 2290 nM
  LC50: 45.7 µM
SF-295; read-out: pTGI (converted)
  TGI: 11.5 µM
BT-549
  GI50: 2570 nM
  LC50: 30.9 µM
BT-549; read-out: pTGI (converted)
  TGI: 8.91 µM
NCI-H522
  GI50: 1820 nM
  LC50: 13.2 µM
NCI-H522; read-out: pTGI (converted)
  TGI: 4.47 µM
HL-60(TB)
  GI50: 2570 nM
HL-60(TB); [2]
  CC50: > 100 µM
HL-60(TB); read-out: pTGI (converted)
  TGI: 18.6 µM
MOLT-4
  GI50: 4.07 µM
  LC50: > 100 µM
MOLT-4; read-out: pTGI (converted)
  TGI: 25.1 µM
A498
  GI50: 2820 nM
  LC50: 45.7 µM
A498; read-out: pTGI (converted)
  TGI: 16.6 µM
RXF 393
  GI50: 1860 nM
RXF 393; [2]
  CC50: 6.61 µM
RXF 393; read-out: pTGI (converted)
  TGI: 3.55 µM
T47D
  GI50: 2630 nM
  LC50: 52.5 µM
T47D; read-out: pTGI (converted)
  TGI: 13.2 µM
HCT-15
  GI50: 3.24 µM
  LC50 (50% lethal concentration): 64.6 µM
HCT-15; read-out: pTGI (converted)
  TGI: 16.6 µM
IGROV-1
  GI50: 2340 nM
IGROV-1; [2]
  CC50: 38.9 µM
IGROV-1; read-out: pTGI (converted)
  TGI: 11.2 µM
M14
  GI50: 2000 nM
M14; [2]
  CC50: 8.51 µM
M14; read-out: pTGI (converted)
  TGI: 4.17 µM
NCI-H322M
  GI50: 6.17 µM
  LC50: 47.9 µM
NCI-H322M; read-out: pTGI (converted)
  TGI: 20 µM
SK-OV-3
  GI50: 7.24 µM
SK-OV-3; [2]
  CC50: 44.7 µM
SK-OV-3; read-out: pTGI (converted)
  TGI: 19.5 µM
SNB-19
  GI50: 6.76 µM
  LC50: 46.8 µM
SNB-19; read-out: pTGI (converted)
  TGI: 19.5 µM
ACHN
  GI50: 3.8 µM
ACHN; [2]
  CC50: 38.9 µM
ACHN; read-out: pTGI (converted)
  TGI: 13.5 µM
NCI-H226
  GI50: 3.63 µM
  LC50: 55 µM
NCI-H226; read-out: pTGI (converted)
  TGI: 14.8 µM
A549
  GI50: 3.31 µM
  LC50: 42.7 µM
A549; read-out: pTGI (converted)
  TGI: 12.9 µM
MDA-MB-231
  GI50: 3.47 µM
  LC50: 44.7 µM
MDA-MB-231; read-out: pTGI (converted)
  TGI: 11.7 µM
CAKI-1
  GI50: 1820 nM
CAKI-1; [2]
  CC50: 25.1 µM
CAKI-1; read-out: pTGI (converted)
  TGI: 5.89 µM
LOX IMVI
  GI50: 1700 nM
LOX IMVI; [2]
  CC50: 5.89 µM
LOX IMVI; read-out: pTGI (converted)
  TGI: 3.16 µM
UACC-257
  GI50: 4.68 µM
  LC50: 41.7 µM
UACC-257; read-out: pTGI (converted)
  TGI: 16.2 µM
HCC 2998
  GI50: 2690 nM
  LC50: 21.4 µM
HCC 2998; read-out: pTGI (converted)
  TGI: 6.31 µM
MCF7
  GI50: 2570 nM
  LC50: 43.7 µM
MCF7; read-out: pTGI (converted)
  TGI: 11.2 µM
SNB-75
  GI50: 8.91 µM
  LC50: 46.8 µM
SNB-75; read-out: pTGI (converted)
  TGI: 21.4 µM
NCI-H23
  GI50: 3.02 µM
  LC50: 36.3 µM
NCI-H23; read-out: pTGI (converted)
  TGI: 8.51 µM
NCI/ADR-RES
  GI50: 3.16 µM
NCI/ADR-RES; [2]
  CC50: 38.9 µM
NCI/ADR-RES; read-out: pTGI (converted)
  TGI: 9.77 µM
NCI-H460
  GI50: 3.24 µM
  LC50: 70.8 µM
NCI-H460; read-out: pTGI (converted)
  TGI: 12 µM
[1]
  GI50: 2880 nM
  LC50: 89.1 µM
[1]; read-out: pTGI (converted)
  TGI: 12.3 µM
U-251
  GI50: 2750 nM
  LC50: 30.9 µM
U-251; read-out: pTGI (converted)
  TGI: 8.32 µM
K562
  GI50: 3.72 µM
  LC50: > 100 µM
K562; read-out: pTGI (converted)
  TGI: 22.9 µM
KM12
  GI50: 2750 nM
  LC50: 31.6 µM
KM12; read-out: pTGI (converted)
  TGI: 8.91 µM
SN12C
  GI50: 1950 nM
SN12C; [2]
  CC50: 9.77 µM
SN12C; read-out: pTGI (converted)
  TGI: 4.37 µM
SK-MEL-28
  GI50: 2450 nM
SK-MEL-28; [2]
  CC50: 23.4 µM
SK-MEL-28; read-out: pTGI (converted)
  TGI: 6.46 µM
HOP-92
  GI50: 2290 nM
HOP-92; [2]
  CC50: 34.7 µM
HOP-92; read-out: pTGI (converted)
  TGI: 8.32 µM
SR
  GI50: 4.27 µM
  LC50: > 100 µM
SR; read-out: pTGI (converted)
  TGI: 29.5 µM
786-0
  GI50: 1950 nM
786-0; [2]
  CC50: 9.77 µM
786-0; read-out: pTGI (converted)
  TGI: 4.37 µM
SF-539
  GI50: 2510 nM
  LC50: 18.6 µM
SF-539; read-out: pTGI (converted)
  TGI: 5.62 µM
